Laboratory results from article PMC6832932, “Design and Selection of Novel C1s Inhibitors by In Silico and In Vitro Approaches” (Molecules, 2019).
Like-named read-outs stand apart in the source and are kept apart here.

Columns and labels:
Human isolated Factor Xa = biological target: T1, Human isolated Factor Xa (Homo sapiens, UniProt P00742); assay: Factor Xa activity assay (fluorescent substrate Boc-Leu-Gly-Arg-AMC); assay type: biochemical; conditions: for remaining activity at 10 µM: 10 µM compound
T1 construct: purchased ThermoFisher Scientific (Waltham, MA, USA)
T1 sequence (P00742 235-488 limits assumed): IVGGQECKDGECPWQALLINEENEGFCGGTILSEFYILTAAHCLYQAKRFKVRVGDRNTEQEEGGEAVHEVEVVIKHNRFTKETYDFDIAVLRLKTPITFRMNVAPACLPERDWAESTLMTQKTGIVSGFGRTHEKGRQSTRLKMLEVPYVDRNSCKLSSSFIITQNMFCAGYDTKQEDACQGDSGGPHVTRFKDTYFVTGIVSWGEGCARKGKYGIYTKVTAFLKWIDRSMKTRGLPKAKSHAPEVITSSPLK
T1 sequence (P00742 41-179 partner limits assumed): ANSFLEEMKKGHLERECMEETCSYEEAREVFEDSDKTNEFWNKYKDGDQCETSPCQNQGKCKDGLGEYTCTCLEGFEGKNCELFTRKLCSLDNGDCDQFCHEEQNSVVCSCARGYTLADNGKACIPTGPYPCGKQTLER
Protocol: Human isolated Factor Xa protein was purchased from ThermoFisher Scientific (Waltham, MA, USA). An end-point assay was carried out using the fluorescent amide substrate Boc-Leu-Gly-Arg-AMC used for C1s 10 µM screen; assay conditions: 20 mM HEPES (pH 7,8) 100 mM NaCl, 10 mM CaCl2 30 °C, 0.05% TWEEN-20, 1% DMSO; low enzyme concentration (about 1 nM); in a 96 well microplate format (in 100 µL), using non-binding black plates (Greiner).

C1s [1] = biological target: T2, C1s (Homo sapiens, UniProt P09871); assay: C1s inhibition IC50 assay (thioester substrate Z-Lys-SBzl with DTNB, photometric); assay type: biochemical; conditions: read-out: IC50 C1s
T2 construct: Recombinant C1s and C1r fragments (CCP1-CCP2-SP, the γB catalytic region); made in house
T2 sequence (P09871 438-688 limits assumed): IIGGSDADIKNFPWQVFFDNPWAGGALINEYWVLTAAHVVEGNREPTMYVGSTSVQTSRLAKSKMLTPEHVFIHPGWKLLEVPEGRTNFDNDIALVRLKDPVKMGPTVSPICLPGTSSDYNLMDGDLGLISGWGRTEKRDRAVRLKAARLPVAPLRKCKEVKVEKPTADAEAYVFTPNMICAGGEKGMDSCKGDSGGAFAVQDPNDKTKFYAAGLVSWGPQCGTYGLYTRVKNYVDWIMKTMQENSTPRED
Text: Recombinant C1s and C1r fragments (CCP1-CCP2-SP, the γB catalytic region) containing the serine protease domain were expressed in E. Coli BL21(DE3)pLysS host strain (transformed with pET-17b vector) in form of inclusion bodies; proteins were isolated, renatured and purified as published earlier. Recombinant C1s, isolated in intact proenzyme form, was activated by limited proteolysis using the recombinant, autoactivated C1r fragment. Activated C1s and C1r were separated using Q Sepharose HP (Amersham Biosciences, Little Chalfont, UK) anion exchange chromatography.
40 µL enzyme + 10 µL inhibitor compounds were incubated (10 min, RT), and 50 µL substrate solution (1 mM final concentration) was added; incubated for 45 min and finally absorbance was read (405 nm) with a Perkin Elmer Wallac 1420 Victor2 microplate reader.

C1s [2] = biological target: T2, C1s; conditions: ref Subasinghe et al, 2004 [5]; read-out: Ki (C1s, thiopheneamidine inhibitors); cited from earlier work
C1s [3] = biological target: T2, C1s; conditions: cited from earlier work
[4] = 1 mM Z-Lys-SBzl, enzyme below 1 nM
[5] = 1 mM Z-Lys-SBzl, text and Figure S1
[6] = 1 mM ZLysSBzl, Figure S1 curves

| Structure (SMILES) | remaining activity at 10 µM (Human isolated Factor Xa) [%] | IC50 (C1s [1]; [4]) [µM] | Ki (C1s [2]) [µM] | other results |
| --- | --- | --- | --- | --- |
| CC(C)(C)c1ccc(C(=O)n2nnc3ccccc32)cc1 [Entry 4] | 86.2 | 1.3 | – | – |
| CSc1sc(C(=N)N)cc1-c1ncc(-c2ccccc2)s1 [CHEMBL322672] | – | – | 3.25 | – |
| CSc1sc(C(=N)N)cc1-c1nc(Cc2ccccc2)cs1 [CHEMBL29269] | – | – | 1.06 | – |
| CCOc1ccc(C(=O)n2nnc3ccccc32)cc1 [Entry 1] | 30.3 | 0.083 | – | IC50 (C1s [1]; [5]): 0.0833 µM |
| CSc1sc(C(=N)N)cc1-c1nc(-c2cnn(-c3ccccc3)c2)cs1 [CHEMBL322834] | – | – | 0.15 | – |
| Cc1ccc(-c2nc3sc(C)c(C)c3c(=O)o2)cc1 [Entry 20] | – | ~50 | – | – |
| CSc1sc(C(=N)N)cc1-c1nc(-c2cnccc2Cl)cs1 [CHEMBL28723] | – | – | 0.87 | – |
| CSc1sc(C(=N)N)cc1-c1nc(COc2ccccc2)cs1 [CHEMBL287292] | – | – | 0.52 | – |
| COc1cccc(-c2csc(-c3cc(C(=N)N)sc3SC)n2)c1 [CHEMBL29205] | – | – | 0.47 | – |
| CSc1sc(C(=N)N)cc1-c1nc(-c2ccccc2)cs1 [CHEMBL281899] | – | – | 0.56 | – |
| CSc1sc(C(=N)N)cc1-c1nc(-c2cnn(-c3ccccc3)c2OCC2CCC2)cs1 [CHEMBL102835] | – | – | 0.53 | – |
| CSc1sc(C(=N)N)cc1-c1nc(-c2ccc(-c3ccccc3)cc2)cs1 [CHEMBL418023] | – | – | 15.4 | – |
| COc1ccccc1C(=O)n1nc(-c2ccco2)nc1SC [Entry 9] | 2.39 | 0.012 | – | IC50 (Human isolated Factor Xa; 500 µM Boc-Leu-Gly-Arg-AMC): 1.25 µM; IC50 (C1s [1]; [5]): 0.0116 µM |
| CC(=O)Nc1ccc(C(=O)n2nnc3ccccc32)cc1 [Entry 2] | 43.1 | 0.091 | – | IC50 (C1s [1]; [5]): 0.0908 µM |
| CSc1sc(C(=N)N)cc1-c1nc(-c2ccc(Cl)c([N+](=O)[O-])c2)cs1 [CHEMBL413764] | – | – | 0.86 | – |
| O=c1oc(-c2ccco2)nc2cc(Cl)ccc12 [Entry 13] | 98.6 | 0.474 | – | – |
| CCN(CC)c1ccc(C(=O)n2nnc3ccccc32)cc1 [Entry 8] | 76.5 | 5.9 | – | – |
| CSc1nc(-c2ccco2)nn1C(=O)c1ccccc1 [Entry 11] | 26 | 0.094 | – | IC50 (C1s [1]; [5]): 0.0936 µM |
| Cc1sc(C(=N)N)cc1-c1nc(-c2ccccc2)cs1 [CHEMBL106071] | – | – | 6 | – |
| O=C(c1ccc(F)c(F)c1)n1nnc2ccccc21 [Entry 6] | 92.3 | 2.16 | – | – |
| CSc1nc(-c2ccco2)nn1C(=O)c1ccco1 [7 965 558] | – | – | – | IC50 (C1s [3]; seed compounds for 2D similarity search, ref PubChem [9],[10], read-out: IC50 (seed compounds)): 4.48 µM |

| Structure (SMILES) | remaining activity at 10 µM (Human isolated Factor Xa) [%] | IC50 (C1s [1]; [4]) [µM] | Ki (C1s [2]) [µM] | other results |
| --- | --- | --- | --- | --- |
| CCCc1nn(C)cc1-c1csc(-c2cc(C(=N)N)sc2SC)n1 [CHEMBL106388] | – | – | 0.19 | – |
| Cc1cccc2c(=O)nc(-c3ccco3)oc12 [Entry 23] | – | 41 | – | – |
| N=C(N)c1cc(-c2nc(-c3ccccc3)cs2)c(C(F)(F)F)s1 [CHEMBL103840] | – | – | 12.5 | – |
| CS(=O)(=O)c1sc(C(=N)N)cc1-c1nc(-c2ccccc2)cs1 [CHEMBL105652] | – | – | > 28 | – |
| CSc1sc(C(=N)N)cc1-c1nc(-c2cnn(-c3ccccc3)c2OCCC(C)C)cs1 [CHEMBL101698] | – | – | 1.5 | – |
| N=C(N)c1cc(-c2nc(-c3ccccc3)cs2)c(SCc2ccccc2)s1 [CHEMBL104368] | – | – | > 20 | – |
| COc1ccc(-c2csc(-c3cc(C(=N)N)sc3SC)n2)c(OC)c1 [CHEMBL286267] | – | – | 0.64 | – |
| Cc1sc2nc(-c3ccccc3)oc(=O)c2c1C [Entry 19] | – | ~20 | – | – |
| CSc1sc(C(=N)N)cc1-c1nc(-c2ccc([N+](=O)[O-])cc2)cs1 [CHEMBL29006] | – | – | 1 | – |
| COc1ccccc1-c1csc(-c2cc(C(=N)N)sc2SC)n1 [CHEMBL283080] | – | – | 0.85 | – |
| COc1ccc(C(=O)n2nnc3ccccc32)cc1OC [Entry 5] | 48.3 | 1.85 | – | – |
| O=c1nc(-c2cccs2)oc2cc(Cl)ccc12 [Entry 21] | 53.6 | 0.241 | – | IC50 (C1s [1]; [6]): 0.24 µM |
| CSc1sc(C(=N)N)cc1-c1nc(-c2ccccc2C)cs1 [CHEMBL28949] | – | – | 0.85 | – |
| CSc1sc(C(=N)N)cc1-c1nc(-c2cccnc2Cl)cs1 [CHEMBL285818] | – | – | 1.02 | – |
| CSc1nc(-c2ccco2)nn1C(=O)c1ccc(F)cc1 [Entry 10] | 78.1 | 0.044 | – | IC50 (C1s [1]; [5]): 0.0436 µM |
| CSc1sc(C(=N)N)cc1-c1nc(-c2cccc(C)c2)cs1 [CHEMBL286498] | – | – | 0.96 | – |
| O=C(c1ccc(-c2ccccc2)cc1)n1nnc2ccccc21 [Entry 7] | 92.1 | 3.87 | – | – |
| CCCOc1c(-c2csc(-c3cc(C(=N)N)sc3SC)n2)cnn1-c1ccccn1 [CHEMBL317917] | – | – | 0.07 | – |
| COc1ccc(-c2csc(-c3cc(C(=N)N)sc3SC)n2)cc1 [CHEMBL28618] | – | – | 0.9 | – |
| COc1cc(SC)ccc1C(=O)n1nnc2ccccc21 [Entry 3] | 4.93 | 0.24 | – | – |
| O=C(c1ccc2c(c1)OCO2)C1C2C(=O)N(c3ccc4c(c3)OCCO4)C(=O)C2C2c3ccccc3C=CN12 (stereo not drawn) [4,257,399] | – | – | – | IC50 (C1s [3]; ref PubChem, read-out: IC50 C1s): 0.88 µM |

| Structure (SMILES) | remaining activity at 10 µM (Human isolated Factor Xa) [%] | IC50 (C1s [1]; [4]) [µM] | Ki (C1s [2]) [µM] | other results |
| --- | --- | --- | --- | --- |
| CSc1sc(C(=N)N)cc1-c1nc(-c2csc3ccccc23)cs1 [CHEMBL28875] | – | – | 0.45 | – |
| CSc1sc(C(=N)N)cc1-c1nc(C2CCCCC2)cs1 [CHEMBL283859] | – | – | 4.7 | – |
| CCCc1c(-c2csc(-c3cc(C(=N)N)sc3SC)n2)cnn1C [CHEMBL318576] | – | – | 0.33 | – |
| CCOC(=O)CSc1nc(-c2cccnc2)nn1C(=O)c1ccccc1 [Entry 12] | 85.4 | 2.4 | – | – |
| COc1sc(C(=N)N)cc1-c1nc(-c2ccccc2)cs1 [CHEMBL322207] | – | – | 14.4 | – |
| CCc1sc(C(=N)N)cc1-c1nc(-c2ccccc2)cs1 [CHEMBL441273] | – | – | 3 | – |
| Cc1cc2c(=O)oc(-c3ccccc3Br)nc2s1 [Entry 18] | 46.1 | 0.845 | – | IC50 (C1s [1]; [6]): 0.846 µM |
| COc1cc2nc(-c3ccco3)oc(=O)c2cc1OC [Entry 14] | 61.4 | 6.44 | – | – |
| Cc1sc2nc(-c3ccco3)oc(=O)c2c1C [Entry 17] | 100 | 0.549 | – | C1s inhibitory activity as reported in ChEMBL and PubChem (in words) (C1s [3]; ref [9]): inactive |
| CC(=O)Oc1ccc2nc(-c3ccco3)oc(=O)c2c1 [Entry 16] | 77.6 | 29 | – | – |
| CCSc1sc(C(=N)N)cc1-c1nc(-c2ccccc2)cs1 [CHEMBL105102] | – | – | > 20 | – |
| CSc1sc(C(=N)N)cc1-c1nc(-c2ccc(Cl)cc2Cl)cs1 [CHEMBL285142] | – | – | 3 | – |
| CSc1sc(C(=N)N)cc1-c1nc(-c2cccs2)cs1 [CHEMBL31549] | – | – | 0.7 | – |
| CCOc1c(-c2csc(-c3cc(C(=N)N)sc3SC)n2)cnn1-c1ccccc1 [CHEMBL321341] | – | – | 0.09 | – |
| O=c1oc(-c2ccco2)nc2ccc(Cl)cc12 [Entry 15] | 82 | 6.7 | – | IC50 (C1s [1]; [6]): 6.68 µM |
| N=C(N)c1cc(-c2nc(-c3ccccc3)cs2)cs1 [CHEMBL321519] | – | – | > 20 | – |
| CSc1sc(C(=N)N)cc1-c1nc(-c2ccc3ccccc3c2)cs1 [CHEMBL29290] | – | – | 0.49 | – |
| CSc1sc(C(=N)N)cc1-c1nc(-c2ccc(Cl)cc2)cs1 [CHEMBL286243] | – | – | 0.436 | – |
| O=c1nc(-c2ccco2)oc2ccc(Cl)cc12 [Entry 22] | 0.14 | 3.6 | – | – |
| CSc1sc(C(=N)N)cc1-c1nc(-c2cnn(C)c2)cs1 [CHEMBL102417] | – | – | 0.46 | – |
| CSc1sc(C(=N)N)cc1-c1nc(-c2ccc(C)cc2)cs1 [CHEMBL29304] | – | – | 0.42 | – |
